Assay results: patent US11230525B2, “Organic sulfur compound, method for preparing same, and pharmaceutical composition for preventing or treating cancer or an inflammatory disease, containing same as active ingredient” (SOOKMYUNG WOMENS UNIVERSITY INDUSTRY-ACADEMIC COOPERATION …, priority 2016, dated 2022)

Assays:
[1] = test system: lung cancer cell line (NCl-H23); test: Cancer proliferation inhibitory activity (SRB, GI50), NCI-H23; format: cell-based; settings: Homo sapiens, 48 hours
Procedure, shortened: (§1)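 GI50 values come from an SRB protein-staining assay after 48 h of treatment with compound between 0.1 μM and 10 μM.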

HDAC 6 = molecular target: T1, HDAC 6 (Homo sapiens, UniProt Q9UBN7); test: HDAC enzyme fluorescence assay, HDAC 6; format: biochemical; settings: recombinant HDAC enzyme, Boc-Lys(acetyl)-AMC
T1 sequence (Q9UBN7 1-1215): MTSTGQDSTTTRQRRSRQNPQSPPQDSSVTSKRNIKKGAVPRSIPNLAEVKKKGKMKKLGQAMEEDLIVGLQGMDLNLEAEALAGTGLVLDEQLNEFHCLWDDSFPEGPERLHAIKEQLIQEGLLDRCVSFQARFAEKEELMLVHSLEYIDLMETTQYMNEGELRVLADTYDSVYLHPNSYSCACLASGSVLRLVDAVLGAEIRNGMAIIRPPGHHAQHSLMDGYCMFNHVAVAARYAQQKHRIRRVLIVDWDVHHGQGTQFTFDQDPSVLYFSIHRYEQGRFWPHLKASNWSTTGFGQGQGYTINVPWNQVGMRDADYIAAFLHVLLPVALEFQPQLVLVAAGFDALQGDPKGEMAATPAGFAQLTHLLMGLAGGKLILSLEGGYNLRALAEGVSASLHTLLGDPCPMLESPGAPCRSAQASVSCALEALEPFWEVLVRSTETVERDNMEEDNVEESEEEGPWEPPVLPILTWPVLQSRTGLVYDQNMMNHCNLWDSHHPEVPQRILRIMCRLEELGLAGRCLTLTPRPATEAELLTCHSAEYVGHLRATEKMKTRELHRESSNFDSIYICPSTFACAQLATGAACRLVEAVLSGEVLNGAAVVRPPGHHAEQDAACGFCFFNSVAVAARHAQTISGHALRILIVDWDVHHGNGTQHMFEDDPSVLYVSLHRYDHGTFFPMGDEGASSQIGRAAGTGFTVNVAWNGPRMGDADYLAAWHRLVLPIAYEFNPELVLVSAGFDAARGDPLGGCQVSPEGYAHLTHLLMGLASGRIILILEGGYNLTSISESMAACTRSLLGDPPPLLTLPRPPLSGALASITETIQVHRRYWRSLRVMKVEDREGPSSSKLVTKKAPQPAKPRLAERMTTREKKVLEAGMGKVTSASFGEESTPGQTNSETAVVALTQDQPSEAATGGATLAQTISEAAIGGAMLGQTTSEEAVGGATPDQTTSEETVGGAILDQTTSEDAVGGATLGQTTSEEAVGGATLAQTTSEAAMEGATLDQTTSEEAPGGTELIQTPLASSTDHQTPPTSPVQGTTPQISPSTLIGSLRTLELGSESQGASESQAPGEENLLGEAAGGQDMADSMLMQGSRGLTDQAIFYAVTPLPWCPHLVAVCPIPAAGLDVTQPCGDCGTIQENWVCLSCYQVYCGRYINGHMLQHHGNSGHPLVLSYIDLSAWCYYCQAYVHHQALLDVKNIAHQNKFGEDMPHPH
Description: Particularly, HDAC enzyme analysis was performed based on a uniform fluorescence emission assay. First, the compounds of examples of the present invention or comparative example 1 were diluted at different concentrations, which were treated to the analysis buffer containing 25 mM HEPES (pH 8.0), 137 mM NaCl, 1 mM MgCl2 and 2.7 mM KCL, followed by culture of the recombinant HDAC enzyme. 10 minutes later, Boc-Lys(acetyl)-AMC, the fluorescence inducing substrate, was added thereto, followed by further culture at 37° C. At this time, the concentration of the fluorescence inducing substrate and the culture time were adjusted according to the isotypes of the HDAC enzyme. The reaction was terminated by treating trypsin at room temperature for 20 minutes. The fluorescence intensity was measured using a fluorescence analyzer at an excitation wavelength of 380 nm and an emission wavelength of 460 nm, respectively. The inhibition rate was calculated from the measured fluorescence intensity of each well with comparing to that of the control well. IC50 of the compound was calculated by analyzing the dose-reaction inhibition curve.

[2] = test system: breast cancer cell line (MDA-MB-231); test: Cancer proliferation inhibitory activity (SRB, GI50), MDA-MB-231; format: cell-based; settings: Homo sapiens, 48 hours
Procedure, shortened: as §1

[3] = Body weight of mice in prostate cancer xenograft model; format: in vivo; settings: 50 mg/kg (SAHA 100 mg/kg) once a day for 16 days
Description: When the tumor size reached 40-60 mm^3, the mice were randomly grouped (4 mice per group), which were the non-treated group (10% dimethylacetamide, 10% tween 80 and 80% distilled water), the groups treated with the compounds of comparative examples 1 and 2 (Ajoene, 50 mg/kg), the groups treated with the compounds of examples 18 and 32 (50 mg/kg), and the group treated with the positive control SAHA (Vorinostat, 100 mg/kg). The treatment was performed once a day for 16 days in total. During the treatment, the tumor size was measured with a vernier caliper, followed by evaluation according to the following formula: length (mm)×width (mm)×height (mm)/2. The weights were measured regularly.
Upon completion of the treatment (16 days later), the mice were sacrificed and the tumor weights were measured. All the experiments were performed according to the experiment protocol approved by Institutional Animal care and Use Committee (IACUC), Korea Research Institute of Bioscience and Biotechnology (KRIBB).

COc1ccc([S+]([O-])C/C=C\SSCc2ccccc2)cc1 (centres unmarked) [Example 32, (Z)-1-benzyl-2-(3-(4-methoxyphenylsulfinyl)prop-1-enyl)disulfane]
GI50 [1]: 4370 nM
IC50 (HDAC 6): 550 nM
GI50 [2]: 5880 nM
changes in weight of mice / visible toxicity (FIG. 1) [3]: only normal weight increases were observed

CCCSS/C=C\C[S+]([O-])c1cccc(OC)c1 (centres unmarked) [Example 18, (Z)-1-(3-(3-methoxyphenylsulfinyl)prop-1-enyl)-2-propyldisulfane]
GI50 [1]: 1590 nM
IC50 (HDAC 6): 1100 nM
GI50 [2]: 2430 nM
changes in weight of mice / visible toxicity (FIG. 1) [3]: only normal weight increases were observed
